Values belong to the compound of their own block, whether it stands above or below them.
How the values were obtained:
Type in all cases: in vivo
Zea mays [1] = assay: Crop compatibility pre-emergence (greenhouse pot trial); details: application rate 20 g/ha, effect vs untreated controls
Text: (§1) Seeds of mono- and dicotyledonous weeds and crop plants were laid out in plastic or organic plant pots and covered with soil. The compounds of the invention formulated in the form of wettable powders (WP) or emulsion concentrates (EC) were then applied to the surface of the covering soil as an aqueous suspension or emulsion with addition of 0.5% additive at a water application rate equivalent to 600 L/ha. After the treatment, the pots were placed in a greenhouse and kept under good growth conditions for the test plants. After about 3 weeks, the efficacy of the preparations was scored visually as a percentage by comparison with untreated controls. For example, 100% efficacy=plants have died, 0% efficacy=like control plants.
Crop compatibilities were also scored correspondingly.
The effects observed are reported here on selected crop plants by comparison with the untreated controls (values in %).

Zea mays [2] = assay: Crop compatibility post-emergence (greenhouse pot trial); details: application rate 80 g/ha
Outline: (§2)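 Compatibility is expressed as visually scored percent injury, where 0% means no difference from untreated controls and 100% means dead plants, assessed about 3 weeks after a foliar spray at 600 L/ha with 0.5% additive on one-leaf-stage pot plants in sandy loam.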

Triticum aestivum = assay: as above
Outline: as §2

Oryza sativa = assay: as above; details: application rate 20 g/ha
Outline: as §2

Alopecurus myosuroides [3] = assay: Herbicidal action pre-emergence (greenhouse pot trial); details: application rate 320 g/ha, scored after about 3 weeks
Text: as §1, with “control plants. Tables B1 to B16 below show the efficacies of selected compounds of the general formula (I) according to tables I.1 to I.60 on various harmful plants and an application rate corresponding to 320 g/ha or lower that were obtained by the aforementioned trial method.” for “control plants.”

Hordeum murinum = assay: as above; details: application rate 320 g/ha
Text: as §1, with “control plants. Tables B1 to B16 below show the efficacies of selected compounds of the general formula (I) according to tables I.1 to I.60 on various harmful plants and an application rate corresponding to 320 g/ha or lower that were obtained by the aforementioned trial method.” for “control plants.”

Pharbitis purpurea [4] = assay: as above; details: application rate 320 g/ha
Text: as §1, with “control plants. Tables B1 to B16 below show the efficacies of selected compounds of the general formula (I) according to tables I.1 to I.60 on various harmful plants and an application rate corresponding to 320 g/ha or lower that were obtained by the aforementioned trial method.” for “control plants.”

Lolium rigidum [5] = assay: as above; details: application rate 320 g/ha
Text: as §1, with “control plants. Tables B1 to B16 below show the efficacies of selected compounds of the general formula (I) according to tables I.1 to I.60 on various harmful plants and an application rate corresponding to 320 g/ha or lower that were obtained by the aforementioned trial method.” for “control plants.”

Setaria viridis [6] = assay: as above; details: application rate 320 g/ha, scored after about 3 weeks
Text: as §1, with “control plants. Tables B1 to B16 below show the efficacies of selected compounds of the general formula (I) according to tables I.1 to I.60 on various harmful plants and an application rate corresponding to 320 g/ha or lower that were obtained by the aforementioned trial method.” for “control plants.”

Matricaria inodora [7] = assay: as above; details: application rate 320 g/ha, scored after about 3 weeks
Text: as §1, with “control plants. Tables B1 to B16 below show the efficacies of selected compounds of the general formula (I) according to tables I.1 to I.60 on various harmful plants and an application rate corresponding to 320 g/ha or lower that were obtained by the aforementioned trial method.” for “control plants.”

Abutilon theophrasti [8] = assay: as above; details: application rate 320 g/ha, scored after about 3 weeks
Text: as §1, with “control plants. Tables B1 to B16 below show the efficacies of selected compounds of the general formula (I) according to tables I.1 to I.60 on various harmful plants and an application rate corresponding to 320 g/ha or lower that were obtained by the aforementioned trial method.” for “control plants.”

Avena fatua = assay: as above; details: application rate 320 g/ha
Text: as §1, with “control plants. Tables B1 to B16 below show the efficacies of selected compounds of the general formula (I) according to tables I.1 to I.60 on various harmful plants and an application rate corresponding to 320 g/ha or lower that were obtained by the aforementioned trial method.” for “control plants.”

Amaranthus retroflexus [9] = assay: as above; details: application rate 320 g/ha, scored after about 3 weeks
Text: as §1, with “control plants. Tables B1 to B16 below show the efficacies of selected compounds of the general formula (I) according to tables I.1 to I.60 on various harmful plants and an application rate corresponding to 320 g/ha or lower that were obtained by the aforementioned trial method.” for “control plants.”

Echinochloa crus-galli [10] = assay: as above; details: application rate 320 g/ha, scored after about 3 weeks
Text: as §1, with “control plants. Tables B1 to B16 below show the efficacies of selected compounds of the general formula (I) according to tables I.1 to I.60 on various harmful plants and an application rate corresponding to 320 g/ha or lower that were obtained by the aforementioned trial method.” for “control plants.”

Viola tricolor [11] = assay: as above; details: application rate 320 g/ha, scored after about 3 weeks
Text: as §1, with “control plants. Tables B1 to B16 below show the efficacies of selected compounds of the general formula (I) according to tables I.1 to I.60 on various harmful plants and an application rate corresponding to 320 g/ha or lower that were obtained by the aforementioned trial method.” for “control plants.”

Stellaria media [12] = assay: as above; details: application rate 320 g/ha, scored after about 3 weeks
Text: as §1, with “control plants. Tables B1 to B16 below show the efficacies of selected compounds of the general formula (I) according to tables I.1 to I.60 on various harmful plants and an application rate corresponding to 320 g/ha or lower that were obtained by the aforementioned trial method.” for “control plants.”

Veronica persica [13] = assay: as above; details: application rate 320 g/ha
Text: as §1, with “control plants. Tables B1 to B16 below show the efficacies of selected compounds of the general formula (I) according to tables I.1 to I.60 on various harmful plants and an application rate corresponding to 320 g/ha or lower that were obtained by the aforementioned trial method.” for “control plants.”

Pharbitis purpurea [14] = assay: Herbicidal action post-emergence (greenhouse pot trial)
Outline: (§3)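 Percent herbicidal efficacy, assessed by eye about 3 weeks after spraying, compares treated with untreated plants. Treatment is a post-emergence spray at the one-leaf stage, using a WP or EC preparation plus 0.5% additive in 600 L/ha of water, at 80 g/ha or lower.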

Setaria viridis [15] = assay: as above; details: scored visually after about 3 weeks vs untreated controls
Outline: as §3

Polygonum convolvulus = assay: as above; details: scored visually after about 3 weeks vs untreated controls
Outline: as §3

Matricaria inodora [16] = assay: as above; details: scored visually after about 3 weeks vs untreated controls
Outline: as §3

Abutilon theophrasti [17] = assay: as above; details: scored visually after about 3 weeks vs untreated controls
Outline: as §3

Amaranthus retroflexus [18] = assay: as above; details: scored visually after about 3 weeks vs untreated controls
Outline: as §3

Viola tricolor [19] = assay: as above
Outline: as §3

Stellaria media [20] = assay: as above; details: scored visually after about 3 weeks vs untreated controls
Outline: as §3

Veronica persica [21] = assay: as above
Outline: as §3

Alopecurus myosuroides [22] = assay: as above; details: application rate 20 g/ha, scored visually after about 3 weeks vs untreated controls
Outline: as §3

Echinochloa crus-galli [23] = assay: as above; details: application rate 20 g/ha, scored visually after about 3 weeks vs untreated controls
Outline: as §3

Digitaria sanguinalis = assay: as above; details: application rate 20 g/ha
Outline: as §3

Lolium rigidum [24] = assay: as above; details: application rate 20 g/ha, scored visually after about 3 weeks vs untreated controls
Outline: as §3

- Zea mays (Efficacy in %) (Zea mays [1]): 20%
- Zea mays (Efficacy in %) (Zea mays [2]): 10%
- Triticum aestivum (Efficacy in %) (Triticum aestivum; application rate 80 g/ha): 20%
- Oryza sativa (Efficacy in %) (Oryza sativa): 10%
SMILES: C=CCN(C(=O)C(C)Sc1cc(-n2c(=O)cc(C(F)(F)F)n(C)c2=O)c(F)cc1Cl)C(C)COC (centres unmarked) [I.1-335]
- Alopecurus myosuroides (Efficacy in %) (Alopecurus myosuroides [3]): 90%
- Hordeum murinum (Efficacy in %) (Hordeum murinum): 90%
- Pharbitis purpurea (Efficacy in %) (Pharbitis purpurea [4]): 100%
- Lolium rigidum (Efficacy in %) (Lolium rigidum [5]): 100%
- Setaria viridis (Efficacy in %) (Setaria viridis [6]): 100%
- Matricaria inodora (Efficacy in %) (Matricaria inodora [7]): 100%
- Abutilon theophrasti (Efficacy in %) (Abutilon theophrasti [8]): 100%
- Avena fatua (Efficacy in %) (Avena fatua): 100%
- Amaranthus retroflexus (Efficacy in %) (Amaranthus retroflexus [9]): 100%
- Echinochloa crus-galli (Efficacy in %) (Echinochloa crus-galli [10]): 100%
- Viola tricolor (Efficacy in %) (Viola tricolor [11]): 100%
- Stellaria media (Efficacy in %) (Stellaria media [12]): 100%
- Veronica persica (Efficacy in %) (Veronica persica [13]): 100%
- Pharbitis purpurea (Efficacy in %) (Pharbitis purpurea [14]; application rate 80 g/ha): 100%
- Setaria viridis (Efficacy in %) (Setaria viridis [15]; application rate 80 g/ha): 100%
- Polygonum convolvulus (Efficacy in %) (Polygonum convolvulus; application rate 80 g/ha): 100%
- Matricaria inodora (Efficacy in %) (Matricaria inodora [16]; application rate 80 g/ha): 100%
- Abutilon theophrasti (Efficacy in %) (Abutilon theophrasti [17]; application rate 80 g/ha): 100%
- Amaranthus retroflexus (Efficacy in %) (Amaranthus retroflexus [18]; application rate 80 g/ha): 100%
- Viola tricolor (Efficacy in %) (Viola tricolor [19]; application rate 80 g/ha): 100%
- Stellaria media (Efficacy in %) (Stellaria media [20]; application rate 80 g/ha): 100%
- Veronica persica (Efficacy in %) (Veronica persica [21]; application rate 80 g/ha): 100%

- Triticum aestivum (Efficacy in %) (Triticum aestivum; application rate 5 g/ha): 20%
SMILES: CCC(Sc1cc(-n2c(=O)cc(C(F)(F)F)n(C)c2=O)c(F)cc1Cl)C(=O)OCC1CCCOC1 (centres unmarked) [I.2-92, Tetrahydro-2H-pyran-3-ylmethyl 2-({2-chloro-4-fluoro-5-[3-methyl-2,6-dioxo-4-(trifluoromethyl)-3,6-dihydropyrimidin-1(2H)-yl]phenyl}sulfanyl)butanoate]
- Alopecurus myosuroides (Efficacy in %) (Alopecurus myosuroides [22]): 80%
- Pharbitis purpurea (Efficacy in %) (Pharbitis purpurea [14]; application rate 20 g/ha): 100%
- Setaria viridis (Efficacy in %) (Setaria viridis [15]; application rate 20 g/ha): 100%
- Polygonum convolvulus (Efficacy in %) (Polygonum convolvulus; application rate 20 g/ha): 100%
- Matricaria inodora (Efficacy in %) (Matricaria inodora [16]; application rate 20 g/ha): 100%
- Abutilon theophrasti (Efficacy in %) (Abutilon theophrasti [17]; application rate 20 g/ha): 100%
- Amaranthus retroflexus (Efficacy in %) (Amaranthus retroflexus [18]; application rate 20 g/ha): 100%
- Echinochloa crus-galli (Efficacy in %) (Echinochloa crus-galli [23]): 100%
- Viola tricolor (Efficacy in %) (Viola tricolor [19]; application rate 20 g/ha): 100%
- Stellaria media (Efficacy in %) (Stellaria media [20]; application rate 20 g/ha): 100%
- Digitaria sanguinalis (Efficacy in %) (Digitaria sanguinalis): 100%
- Veronica persica (Efficacy in %) (Veronica persica [21]; application rate 20 g/ha): 100%

- Triticum aestivum (Efficacy in %) (Triticum aestivum; application rate 20 g/ha): 20%
SMILES: CCC(C)C(Sc1cc(-n2c(=O)cc(C(F)(F)F)n(C)c2=O)c(F)cc1Cl)C(=O)NCC1CCCO1 (centres unmarked) [I.5-221]
- Pharbitis purpurea (Efficacy in %) (Pharbitis purpurea [14]; application rate 20 g/ha): 100%
- Lolium rigidum (Efficacy in %) (Lolium rigidum [24]): 80%
- Setaria viridis (Efficacy in %) (Setaria viridis [15]; application rate 20 g/ha): 100%
- Polygonum convolvulus (Efficacy in %) (Polygonum convolvulus; application rate 20 g/ha): 100%
- Matricaria inodora (Efficacy in %) (Matricaria inodora [16]; application rate 20 g/ha): 100%
- Abutilon theophrasti (Efficacy in %) (Abutilon theophrasti [17]; application rate 20 g/ha): 100%
- Amaranthus retroflexus (Efficacy in %) (Amaranthus retroflexus [18]; application rate 20 g/ha): 100%
- Echinochloa crus-galli (Efficacy in %) (Echinochloa crus-galli [23]): 80%
- Viola tricolor (Efficacy in %) (Viola tricolor [19]; application rate 20 g/ha): 100%
- Stellaria media (Efficacy in %) (Stellaria media [20]; application rate 20 g/ha): 90%
- Digitaria sanguinalis (Efficacy in %) (Digitaria sanguinalis): 80%
- Veronica persica (Efficacy in %) (Veronica persica [21]; application rate 20 g/ha): 100%

SMILES: CC(C)C(Sc1cc(-n2c(=O)cc(C(F)(F)F)n(C)c2=O)c(F)cc1Cl)C(=O)NCC1CCCO1 (centres unmarked) [I.6-221, 2-({2-Chloro-4-fluoro-5-[3-methyl-2,6-dioxo-4-(trifluoromethyl)-3,6-dihydropyrimidin-1(2H)-yl]phenyl}sulfanyl)-3-methyl-N-(tetrahydrofuran-2-ylmethyl)butanamide]
- Alopecurus myosuroides (Efficacy in %) (Alopecurus myosuroides [22]): 90%
- Pharbitis purpurea (Efficacy in %) (Pharbitis purpurea [14]; application rate 20 g/ha): 100%
- Lolium rigidum (Efficacy in %) (Lolium rigidum [24]): 80%
- Setaria viridis (Efficacy in %) (Setaria viridis [15]; application rate 20 g/ha): 100%
- Polygonum convolvulus (Efficacy in %) (Polygonum convolvulus; application rate 20 g/ha): 100%
- Matricaria inodora (Efficacy in %) (Matricaria inodora [16]; application rate 20 g/ha): 100%
- Abutilon theophrasti (Efficacy in %) (Abutilon theophrasti [17]; application rate 20 g/ha): 100%
- Amaranthus retroflexus (Efficacy in %) (Amaranthus retroflexus [18]; application rate 20 g/ha): 100%
- Echinochloa crus-galli (Efficacy in %) (Echinochloa crus-galli [23]): 80%
- Viola tricolor (Efficacy in %) (Viola tricolor [19]; application rate 20 g/ha): 100%
- Stellaria media (Efficacy in %) (Stellaria media [20]; application rate 20 g/ha): 80%
- Digitaria sanguinalis (Efficacy in %) (Digitaria sanguinalis): 100%
- Veronica persica (Efficacy in %) (Veronica persica [21]; application rate 20 g/ha): 100%

— patent US11497212B2, “Substituted thiophenyl uracils, salts thereof and the use thereof as herbicidal agents” (Syngenta Crop Protection AG, priority 2017, dated 2022)
